Test results as given in PubChem BioAssay AID1159565 (GlaxoSmithKline (GSK), 2015).
Active and inactive are the calls of the source. How the calls were made is not given here.

Test system: T. cruzi-infected H9C2 cardiomyocytes, high-content imaging
Test: anti-T. cruzi activity in infected cardiomyocytes – imaging, H9C2 host cardiomyocytes, host toxicity (AID 1159565);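 further: infected cells incubated 72 h after plating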
[1] = measured here: H9C2 host cell toxicity
[2] = measured here: amastigotes per cell

Row | Compound | IC50 | IC50 [1] | IC50 [2]
1 | CCN(CC)S(=O)(=O)c1ccc(Cn2nc(C(=O)Nc3ccncn3)c3ccccc32)cc1 | 0.4 µM | 25 µM | 0.4 µM
2 | Cn1cncc1CN1CCC2(CC1)COC(Cc1ccccc1)C2 (stereo unspecified) | 0.5 µM | > 50 µM | 0.32 µM
3 | CCn1c(NC(=O)Cc2ccc(F)cc2)nc2ccccc21 | 7.9 µM | > 50 µM | 4 µM
4 | O=C(CN(Cc1ccccn1)Cc1ccccn1)NCc1csc(-c2cccs2)n1 | 6.3 µM | > 50 µM | 2.5 µM
5 | COc1ccc(C)cc1-c1csc(NC(=O)C(C)n2ccnc2)n1 (stereo unspecified) | 0.1 µM | > 50 µM | 0.1 µM
6 | O=C(c1ccc(O)c(Cl)c1)N1CCN(c2cnccn2)CC1 | > 50 µM (inactive) | > 50 µM | 10 µM
7 | Cc1ccc2sc(NC(=O)Cn3cnc([N+](=O)[O-])n3)nc2c1 | 4 µM | > 50 µM | 0.5 µM
8 | CN(C)c1ccc(-c2cc3nccnc3c(OC[C@H]3CCCNC3)n2)cn1 | > 50 µM (inactive) | 20 µM | 1.6 µM
9 | Fc1ccc(OC2CC(NCc3cccc4cn[nH]c34)C2)cc1C(F)(F)F (stereo unspecified) | 0.2 µM | 7.9 µM | 0.16 µM
10 | Cc1cc(Oc2cc(Cl)c(Cl)cc2Cl)n2ncnc2n1 | 25 µM | 7.9 µM | 10 µM
11 | O=C(COc1ncnc2cc([N+](=O)[O-])ccc12)NC(=O)NC1CCCCC1 | 1 µM | > 50 µM | 0.5 µM
12 | O=C(NCC1CCCCC1)c1cnns1 | 3.2 µM | > 50 µM | 2 µM
13 | Cc1cc(C)nc(N2CCC(N(Cc3cccnc3)C(=O)c3cccc(C#N)c3)CC2)n1 | 0.32 µM | > 50 µM | 0.4 µM
14 | CC(C)(C)Nc1nc(-c2ccccn2)nc2ccccc12 | 2 µM | 0.32 µM | 1.3 µM
15 | CC(C)c1cc(Nc2cc(Cc3ccccc3)nc(NC3CCC(O)CC3)n2)n[nH]1 (stereo unspecified) | 0.079 µM | 0.0063 µM | 0.032 µM
16 | N#Cc1cnc(Nc2cccc(CCN3CCOCC3)c2)nc1Nc1ccccc1C(N)=O | 3.2 µM | 0.013 µM | 2 µM
17 | CC1CN(Cc2ccc(C#N)cc2)CCN1c1ccc(NC(=O)c2ccccc2F)cc1 (stereo unspecified) | > 50 µM (inactive) | > 50 µM | > 50 µM
18 | COc1ccc(C(=O)[C@H]2C[C@@H]2CN(Cc2ccccn2)Cc2ccccn2)cc1 | 1.6 µM | 25 µM | 1 µM
19 | c1ccc(Nc2nc3ccccc3[nH]2)nc1 | 25 µM | 10 µM | 10 µM
20 | Cc1ccccc1NS(=O)(=O)c1ccc2[nH]cc(C(=O)NC3CCCCC3)c(=O)c2c1 | 16 µM | 25 µM | 10 µM
21 | Cc1[nH]nc(Nc2ccnc3[nH]ccc23)c1C | > 50 µM (inactive) | > 50 µM | > 50 µM
22 | COc1ccc(C(=O)NC2CCN(CCn3c(=O)ccc4ncc(F)cc43)CC2)cc1Cl | 0.63 µM | > 50 µM | 0.32 µM
23 | N#Cc1c(Oc2cccc(Cl)c2)cccc1[N+](=O)[O-] | 0.63 µM | 16 µM | 0.13 µM
24 | O=C(COc1nn(-c2ccccc2)c2ncccc12)NCc1ccccc1 | > 50 µM (inactive) | > 50 µM | 32 µM

Row | Compound | IC50 | IC50 [1] | IC50 [2]
25 | Cc1cccc(NS(=O)(=O)c2cnc3sc(C)cn3c2=O)c1 | 2 µM | 6.3 µM | 1 µM
26 | COCCn1c(-c2ccccc2)cnc1NCc1ccccc1OC | 16 µM | > 50 µM | 6.3 µM
27 | CN(C)S(=O)(=O)c1ccc(Cl)c(C(=O)Nc2nc(-c3ccccn3)cs2)c1 | 2 µM | 6.3 µM | 1.3 µM
28 | Clc1ccc(OCCN2CCCCC2c2cccnc2)c(Cl)c1 (stereo unspecified) | 0.2 µM | > 50 µM | 0.16 µM
29 | Cc1ccnc(NS(=O)(=O)c2ccc(NC(=O)c3ccc([N+](=O)[O-])s3)cc2)n1 | 10 µM | 5 µM | 6.3 µM
30 | CC(C)(C)c1csc(NC(=O)c2ccc([N+](=O)[O-])s2)n1 | 0.32 µM | 13 µM | 0.2 µM
31 | COc1ccc(S(=O)(=O)Nc2ccccc2OC)cc1NC(=O)CCCc1c[nH]c2ccccc12 | 1.3 µM | > 50 µM | 1 µM
32 | O=C(NCc1ccc(-n2cccc2)cc1)c1nc(Cn2ccc([N+](=O)[O-])n2)no1 | 2.5 µM | > 50 µM | 1.3 µM
33 | CC(C)COC(=O)Nc1ccc(N2CCC(CNS(=O)(=O)c3ccccc3)CC2)c(F)c1 | 7.9 µM | > 79 µM | 7.9 µM
34 | Cc1ccc(NC(=O)c2ccc(Cl)c(NC(=O)c3ccc([N+](=O)[O-])cc3)c2)cc1 | 0.5 µM | > 50 µM | 0.2 µM
35 | COc1ccc2nccc(NC(=O)C3(OC)CCN(CC(O)c4ccc5c(c4)OCCO5)CC3)c2n1 (stereo unspecified) | 0.32 µM | 16 µM | 0.13 µM
36 | NS(=O)(=O)c1ccc(CNC(=O)c2ccc([N+](=O)[O-])s2)cc1 | 5 µM | 20 µM | 0.79 µM
37 | N#Cc1cc([N+](=O)[O-])ccc1NC1CCCCCC1 | 2 µM | > 50 µM | 1.3 µM
38 | O=c1[nH]c(NCCCNCc2cc(Br)cc(Br)c2)nc2ccsc12 | 0.63 µM | 25 µM | 0.4 µM
39 | COc1ccc2nccc([C@H](O)CN3CC[C@H](NC(=O)c4ccc(Br)cc4)[C@@H](O)C3)c2n1 | 1.6 µM | 2 µM | 0.16 µM
40 | Cc1cc(C#N)c([N+](=O)[O-])cc1Br | 0.32 µM | 50 µM | 0.05 µM
41 | O=C1NCc2cccc(Nc3nc(NC4CCC(O)CC4)ncc3Br)c21 (stereo unspecified) | 1 µM | 0.1 µM | 0.4 µM
42 | COc1ccc(-c2nc3ncccc3o2)cc1NC(=O)c1cccs1 | 2.5 µM | > 50 µM | 2 µM
43 | COc1ccc(OC)c2c(=O)c(Cc3ccccc3)c(C)[nH]c12 | 0.5 µM | > 50 µM | 0.13 µM
44 | CC(C(=O)Nc1ccccc1F)N(C)CC(=O)Nc1cccc2ccccc12 (stereo unspecified) | 0.5 µM | > 50 µM | 0.32 µM
45 | CCOc1ccc(CN(C)Cc2nc(N)nc(Nc3ccc(C)cc3)n2)cc1 | 5 µM | 3.2 µM | 5 µM
46 | CCN(CC)S(=O)(=O)c1ccc(OC)c(NC(=O)c2ccc([N+](=O)[O-])s2)c1 | 0.16 µM | > 50 µM | 0.13 µM
47 | O=c1[nH]cnc2c([C@@H]3O[C@H](CO)[C@@H](O)[C@H]3O)[nH]nc12 | 0.5 µM | > 50 µM | 0.32 µM
48 | Nc1nc(-c2ccccc2)cc(-c2nc3ncccc3[nH]2)n1 | 2 µM | 13 µM | 1.6 µM

Row | Compound | IC50 | IC50 [1] | IC50 [2]
49 | Cc1cc(=O)n2nc(Oc3ccc(C#N)cc3Cl)sc2n1 | 32 µM | 32 µM | 25 µM
50 | Fc1ccc(Nc2nc(-c3ccccn3)cs2)cc1 | 5 µM | 1 µM | 5 µM
51 | N#Cc1ccc(Br)cc1[N+](=O)[O-] | 0.79 µM | 40 µM | 0.063 µM
52 | CS(=O)(=O)c1ccc(CC(=O)Nc2nc(-c3ccc(Cl)s3)cs2)cc1 | 0.32 µM | 16 µM | 0.4 µM
53 | NCc1csc(Nc2cc(Oc3ccccc3)ncn2)n1 | 25 µM | > 50 µM | 32 µM
54 | N#Cc1cccc(Nc2nccc(N3CCC(NS(=O)(=O)c4cccc(C#N)c4)CC3)n2)c1 | 7.9 µM | 32 µM | 3.2 µM
55 | COCCn1c(-c2ccc3c(c2)OCO3)cnc1NCc1ccccc1OC | 20 µM | 40 µM | 7.9 µM
56 | Cc1nn2c(NCCCO)c3c(nc2c1-c1cccs1)CCC3 | 50 µM | > 50 µM | 5 µM
57 | COc1ccc2ncc(Cl)c(CCN3CC[C@@H](NCc4cc5c(cn4)OCS5)[C@H](O)C3)c2n1 | 0.079 µM | 25 µM | 0.063 µM
58 | Cc1ccc2ccc(C(Nc3ccccn3)c3cccnc3)c(O)c2n1 (stereo unspecified) | 0.2 µM | 32 µM | 0.2 µM
59 | CC(C)(C)C(=O)NCCc1csc(-c2ccc(F)cc2)n1 | 3.2 µM | > 50 µM | 2.5 µM
60 | O=C(NCC1CCCCC1)c1cc(=O)c2ccccc2o1 | 0.63 µM | 32 µM | 0.5 µM
61 | c1ccc(CNc2cccc3ccncc23)cc1 | 6.3 µM | > 50 µM | 5 µM
62 | O=C1CSC(c2cccnc2)N1c1ccc(Cl)cc1Cl (stereo unspecified) | 0.25 µM | > 50 µM | 0.16 µM
63 | Cc1nc(C(=O)Nc2ccc3c(c2)OCO3)nn1-c1ccc(Cl)cc1 | 1.6 µM | > 50 µM | 1 µM
64 | N#Cc1ccccc1S(=O)(=O)N1CCN(C(=O)CNC(=O)c2ccc3c(c2)OCO3)CC1 | 1 µM | > 50 µM | 0.63 µM
65 | Cc1cc(C)cc(NS(=O)(=O)c2cc(-c3cc(C)[nH]n3)ccc2C)c1 | 1.6 µM | 32 µM | 1.3 µM
66 | CCOC(=O)c1cn[nH]c1S(=O)(=O)N1CCC1c1ccccc1 (stereo unspecified) | > 50 µM (inactive) | > 50 µM | > 50 µM
67 | COc1ccc(C(C)(C)C)cc1S(=O)(=O)n1ccnc1 | 0.2 µM | > 50 µM | 0.2 µM
68 | COc1ccc(Nc2nccc(N(C)c3n[nH]c4c(F)cccc34)n2)cc1S(C)(=O)=O | 4 µM | 7.9 µM | 2 µM
69 | O=C(NCc1ccncc1)c1ccccc1N1CCCN(C(=O)Cc2ccc(F)c(F)c2)CC1 | 0.079 µM | > 50 µM | 0.079 µM
70 | COc1cc(Nc2nccc(Nc3onc(C)c3C)n2)cc(S(=O)(=O)C2CCOCC2)c1 | 25 µM | 10 µM | 13 µM
71 | Cc1ccc(NC(=O)c2ccnc(N3CCCC3)c2)cc1-c1cc(C(N)=O)ccc1C | 10 µM | > 50 µM | 3.2 µM
72 | CN1C(=O)c2ccccc2Sc2ccc(NC(=O)NCc3ccco3)cc21 | 13 µM | 25 µM | 6.3 µM
